Measurements taken from ChEMBL document CHEMBL1201862, “PubChem BioAssay data set” (2004).
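Exposure lasted 48 hours, with cells grown in 96-well plates and compounds tested at five concentrations. GI50 is the concentration that inhibits growth by half.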 The source made the active and inactive calls. Cut-off read from the data, not from the text of the source: active = GI50 up to about 1.1 µM and inactive = higher.

How the values were obtained:
Assay in all cases: DTP human tumour cell line panel, 48 h
SK-MEL-28 = tested on: SK-MEL-28
K562 = tested on: K562
HOP-92 = tested on: HOP-92
M14 = tested on: M14
HOP-62 = tested on: HOP-62
SF-539 = tested on: SF-539
SK-MEL-5 = tested on: SK-MEL-5
SN12C = tested on: SN12C
EKVX = tested on: EKVX
KM12 = tested on: KM12
SNB-75 = tested on: SNB-75
SR = tested on: SR
OVCAR-3 = tested on: OVCAR-3
OVCAR-8 = tested on: OVCAR-8
TK-10 = tested on: TK-10
SK-OV-3 = tested on: SK-OV-3
SK-MEL-2 = tested on: SK-MEL-2
ACHN = tested on: ACHN
NCI-H226 = tested on: NCI-H226
A498 = tested on: A498

Measured: GI50

C1CSCCSCCS1
inactive: SK-MEL-28 > 100 µM | K562 > 100 µM | HOP-92 > 100 µM | M14 > 100 µM | HOP-62 > 100 µM | SF-539 > 100 µM | SK-MEL-5 > 100 µM | SN12C > 100 µM | EKVX > 100 µM | KM12 > 100 µM | SNB-75 > 100 µM | SR > 100 µM | OVCAR-3 > 100 µM | OVCAR-8 > 100 µM | TK-10 > 100 µM | SK-OV-3 > 100 µM

CCOC(=O)NC(=O)c1cn(CCCOC(=O)CCCCCCCCCCC(=O)OCCCn2cc(C(=O)NC(=O)OCC)c(=O)[nH]c2=O)c(=O)[nH]c1=O
inactive: SK-MEL-28 > 100 µM | K562 > 100 µM | SK-MEL-2 > 100 µM | HOP-92 > 100 µM | M14 > 100 µM | HOP-62 > 100 µM | SF-539 > 100 µM | SK-MEL-5 > 100 µM | SN12C > 100 µM | EKVX > 100 µM | KM12 > 100 µM | SR > 100 µM | OVCAR-3 > 100 µM | OVCAR-8 > 100 µM | ACHN > 100 µM | NCI-H226 > 100 µM | TK-10 > 100 µM | SK-OV-3 42.7 µM

CNc1ccc([N+](=O)[O-])c2c(NCCCN(C)C)ccnc12
inactive: SK-MEL-28 > 100 µM | K562 > 100 µM | SK-MEL-2 > 100 µM | M14 > 100 µM | HOP-62 > 100 µM | SF-539 > 100 µM | SN12C > 100 µM | EKVX > 100 µM | KM12 > 100 µM | SR > 100 µM | OVCAR-3 > 100 µM | OVCAR-8 > 100 µM | ACHN > 100 µM | NCI-H226 > 100 µM | TK-10 > 100 µM | SK-OV-3 > 100 µM

CC1(C)[C@@H]2C[C@H]1[C@@H](Cc1cccc(C[C@H]3c4cc(-c5ccccn5)ncc4[C@H]4C[C@@H]3C4(C)C)c1)c1cc(-c3ccccn3)ncc12
inactive: SK-MEL-28 4.92 µM | A498 > 44.4 µM | K562 1.19 µM | SK-MEL-2 > 100 µM | HOP-92 9.04 µM | M14 2.76 µM | HOP-62 17.5 µM | SF-539 4 µM | SK-MEL-5 3.36 µM | SN12C 5.68 µM | EKVX 4.62 µM | KM12 3.12 µM | SNB-75 > 22.8 µM | OVCAR-3 > 30.5 µM | OVCAR-8 1.79 µM | ACHN 1.37 µM | NCI-H226 2.83 µM | TK-10 > 39.5 µM | SK-OV-3 > 100 µM

O=c1oc2ccc3ccccc3c2cc1-c1nc2ccccc2s1
inactive: SK-MEL-28 > 100 µM | A498 > 100 µM | K562 > 20.6 µM | SK-MEL-2 > 100 µM | HOP-92 > 100 µM | M14 > 100 µM | HOP-62 > 100 µM | SF-539 > 100 µM | SK-MEL-5 > 100 µM | SN12C > 100 µM | EKVX > 100 µM | KM12 > 100 µM | SNB-75 > 100 µM | OVCAR-3 > 100 µM | OVCAR-8 > 100 µM | ACHN > 100 µM | NCI-H226 > 100 µM | TK-10 > 100 µM | SK-OV-3 > 100 µM

CC[C@]1(Cc2ccc(OC)c(OC)c2)C=[N+]([O-])O[C@H](OC2CCCC2(c2ccccc2)c2ccccc2)[C@@H]1OC(=O)C(C)(C)C (stereo partly drawn)
inactive: SK-MEL-28 2.09 µM | K562 3.61 µM | SK-MEL-2 2.66 µM | HOP-92 4.14 µM | M14 3.51 µM | HOP-62 2.49 µM | SK-MEL-5 2.03 µM | SN12C 3.07 µM | EKVX 4.61 µM | KM12 2.54 µM | SNB-75 3.63 µM | SR 7.93 µM | OVCAR-3 1.55 µM | OVCAR-8 2.19 µM | ACHN 2.33 µM | NCI-H226 3.27 µM | TK-10 3.23 µM | SK-OV-3 15.2 µM

O=C(O)C1CCCN1Cc1cc2ccccc2c2ccccc12 (stereo not drawn)
inactive: SK-MEL-28 > 100 µM | A498 > 100 µM | K562 40.1 µM | SK-MEL-2 > 100 µM | HOP-92 > 100 µM | M14 > 100 µM | HOP-62 > 100 µM | SF-539 > 100 µM | SK-MEL-5 > 100 µM | SN12C > 100 µM | EKVX > 100 µM | KM12 > 100 µM | SNB-75 > 100 µM | OVCAR-3 > 100 µM | OVCAR-8 > 100 µM | ACHN > 100 µM | NCI-H226 > 100 µM | TK-10 > 100 µM | SK-OV-3 > 100 µM

C=CCn1c2ccccc2[n+]2cc([N+](=O)[O-])ccc12
inactive: SK-MEL-28 34.2 µM | A498 19.5 µM | K562 13 µM | SK-MEL-2 27.2 µM | HOP-92 18.9 µM | M14 36.3 µM | HOP-62 54.3 µM | SF-539 32.7 µM | SK-MEL-5 22 µM | SN12C 27.3 µM | EKVX 37 µM | KM12 40.1 µM | SNB-75 33.1 µM | OVCAR-3 24.5 µM | OVCAR-8 27 µM | ACHN 33.1 µM | NCI-H226 25.9 µM | TK-10 61.7 µM | SK-OV-3 47.2 µM

O=C(c1ccccc1)c1ccc2cccc(O)c2n1
inactive: SK-MEL-28 29.3 µM | K562 9.23 µM | SK-MEL-2 47.6 µM | M14 13.8 µM | HOP-62 52.4 µM | SF-539 32.6 µM | SK-MEL-5 22.9 µM | SN12C 38.8 µM | EKVX 24.4 µM | KM12 74.5 µM | SNB-75 30.5 µM | SR 15.4 µM | OVCAR-3 50.8 µM | OVCAR-8 23.6 µM | ACHN 37.5 µM | NCI-H226 38.5 µM | TK-10 94.8 µM

CC(C)c1cccc(C(C)C)c1NC(=O)/C(CC(=O)CC(c1ccccc1)c1c(O)c2ccccc2oc1=O)=N/O (stereo not drawn)
inactive: SK-MEL-28 > 100 µM | A498 > 100 µM | K562 > 100 µM | SK-MEL-2 > 100 µM | HOP-92 > 100 µM | M14 > 100 µM | HOP-62 > 100 µM | SF-539 > 100 µM | SK-MEL-5 > 100 µM | SN12C > 100 µM | EKVX > 100 µM | KM12 > 100 µM | SNB-75 > 100 µM | OVCAR-3 > 100 µM | OVCAR-8 > 100 µM | ACHN > 100 µM | NCI-H226 > 100 µM | TK-10 > 100 µM | SK-OV-3 > 100 µM

CC(=O)CC(=O)Nn1c(-c2cccs2)nc2ccc(I)cc2c1=O
inactive: SK-MEL-28 > 100 µM | K562 > 65.9 µM | SK-MEL-2 > 56.6 µM | HOP-92 > 50.1 µM | M14 > 66.8 µM | HOP-62 > 66.4 µM | SK-MEL-5 > 41.6 µM | SN12C > 49.8 µM | EKVX > 37.7 µM | KM12 > 54.7 µM | SNB-75 43.5 µM | SR > 100 µM | OVCAR-3 > 40.7 µM | OVCAR-8 > 57.3 µM | ACHN > 57 µM | NCI-H226 > 42.3 µM | TK-10 > 43.9 µM | SK-OV-3 > 66.7 µM
